Test results from patent US10485235B2, “Aryloxypyrimidinyl ethers as herbicides” (FMC Corporation, priority 2015, dated 2019).

Assays:
Type in all cases: in vivo
[1] = test system: barnyardgrass (Echinochloa crus-galli); test: Test A preemergence, barnyardgrass; conditions: Preemergence, 0 to 100 scale (0 no effect, 100 complete control)
Method in brief: (§1)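 Pre- and postemergence greenhouse screen in loam–sand soil. Test chemicals were delivered in a non-phytotoxic solvent with surfactant, preemergence as a directed spray onto seeded soil and postemergence onto 2–10 cm seedlings. Injury was judged by eye after ~10 days on a 0–100 scale.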

kochia (Kochia scoparia) [2] = test: Test A preemergence, kochia; conditions: Preemergence, 0 to 100 scale (0 no effect, 100 complete control)
Method in brief: as §1

[3] = test system: ragweed (common ragweed, Ambrosia elatior); test: Test A preemergence, ragweed; conditions: Preemergence, 0 to 100 scale (0 no effect, 100 complete control)
Method in brief: as §1

[4] = test system: ryegrass, Italian (Italian ryegrass, Lolium multiflorum); test: Test A preemergence, Italian ryegrass; conditions: Preemergence, 0 to 100 scale (0 no effect, 100 complete control)
Method in brief: as §1

[5] = test system: foxtail, giant (giant foxtail, Setaria faberii); test: Test A preemergence, giant foxtail; conditions: Preemergence, 0 to 100 scale (0 no effect, 100 complete control)
Method in brief: as §1

[6] = test system: pigweed (Amaranthus retroflexus); test: Test A preemergence, pigweed; conditions: Preemergence, 0 to 100 scale (0 no effect, 100 complete control)
Method in brief: as §1

[7] = test system: barnyardgrass (Echinochloa crus-galli); test: Test A postemergence, barnyardgrass; conditions: postemergence, 0 to 100 scale, 0 is no effect, 100 is complete control, approximately 10 days
Method in brief: as §1

kochia (Kochia scoparia) [8] = test: Test A postemergence, kochia; conditions: postemergence, 0 to 100 scale, 0 is no effect, 100 is complete control, approximately 10 days
Method in brief: as §1

[9] = test system: ragweed (common ragweed, Ambrosia elatior); test: Test A postemergence, ragweed; conditions: postemergence, 0 to 100 scale, 0 is no effect, 100 is complete control, approximately 10 days
Method in brief: as §1

[10] = test system: ryegrass, Italian (Italian ryegrass, Lolium multiflorum); test: Test A postemergence, Italian ryegrass; conditions: postemergence, 0 to 100 scale, 0 is no effect, 100 is complete control, approximately 10 days
Method in brief: as §1

[11] = test system: foxtail, giant (giant foxtail, Setaria faberii); test: Test A postemergence, giant foxtail; conditions: postemergence, 0 to 100 scale, 0 is no effect, 100 is complete control, approximately 10 days
Method in brief: as §1

[12] = test system: pigweed (Amaranthus retroflexus); test: Test A postemergence, pigweed; conditions: postemergence, 0 to 100 scale, 0 is no effect, 100 is complete control, approximately 10 days
Method in brief: as §1

[13] = test system: wheat (Triticum aestivum); test: Test A postemergence, wheat; conditions: postemergence, 0 to 100 scale, 0 is no effect, 100 is complete control, approximately 10 days
Method in brief: as §1

corn (Zea mays) = test: Test A postemergence, corn; conditions: postemergence, 0 to 100 scale, 0 is no effect, 100 is complete control, approximately 10 days
Method in brief: as §1

[14] = test system: blackgrass (Alopecurus myosuroides); test: Test A postemergence, blackgrass; conditions: postemergence, 0 to 100 scale, 0 is no effect, 100 is complete control, approximately 10 days
Method in brief: as §1

[15] = test system: galium (catchweed bedstraw, Galium aparine); test: Test A postemergence, galium; conditions: postemergence, 0 to 100 scale, 0 is no effect, 100 is complete control, approximately 10 days
Method in brief: as §1

rice (Oryza sativa) = test: Test B flooded paddy test, rice; conditions: 250 g ai/ha, Flood; visual rating after 13 to 15 days; scale 0 to 100, 0 is no effect, 100 is complete control
Method in brief: (§2)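 Plants grown to the 2-leaf stage; pots flooded to 3 cm above soil and compounds applied directly into the paddy water, depth held throughout. After 13 to 15 days in the greenhouse, injury was rated visually against untreated controls on a 0–100 scale (0 no effect, 100 complete control).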

[16] = test system: sedge, umbrella (small-flower umbrella sedge, Cyperus difformis); test: Test B flooded paddy test, umbrella sedge; conditions: 250 g ai/ha, Flood; visual rating after 13 to 15 days; scale 0 to 100, 0 is no effect, 100 is complete control
Method in brief: as §2

[17] = test system: ducksalad (Heteranthera limosa); test: Test B flooded paddy test, ducksalad; conditions: 250 g ai/ha, Flood; visual rating after 13 to 15 days; scale 0 to 100, 0 is no effect, 100 is complete control
Method in brief: as §2

[18] = test system: barnyardgrass (Echinochloa crus-galli); test: Test B flooded paddy test, barnyardgrass; conditions: 250 g ai/ha, Flood; visual rating after 13 to 15 days; scale 0 to 100, 0 is no effect, 100 is complete control
Method in brief: as §2

Row | Compound | Plant response rating, Barnyardgrass ([1]; 31 g ai/ha) | Plant response rating, Barnyardgrass ([1]; 125 g ai/ha) | Plant response rating, Kochia (kochia (Kochia scoparia) [2]; 31 g ai/ha) | Plant response rating, Kochia (kochia (Kochia scoparia) [2]; 125 g ai/ha) | Plant response rating, Ragweed ([3]; 31 g ai/ha) | Plant response rating, Ragweed ([3]; 125 g ai/ha) | Plant response rating, Ryegrass, Italian ([4]; 31 g ai/ha) | Plant response rating, Ryegrass, Italian ([4]; 125 g ai/ha) | Plant response rating, Foxtail, Giant ([5]; 31 g ai/ha) | Plant response rating, Foxtail, Giant ([5]; 125 g ai/ha) | Plant response rating, Pigweed ([6]; 31 g ai/ha) | Plant response rating, Pigweed ([6]; 125 g ai/ha) | Plant response rating, Barnyardgrass ([7]; 31 g ai/ha) | Plant response rating, Barnyardgrass ([7]; 125 g ai/ha) | Plant response rating, Kochia (kochia (Kochia scoparia) [8]; 31 g ai/ha) | Plant response rating, Kochia (kochia (Kochia scoparia) [8]; 125 g ai/ha) | Plant response rating, Ragweed ([9]; 31 g ai/ha) | Plant response rating, Ragweed ([9]; 125 g ai/ha) | Plant response rating, Ryegrass, Italian ([10]; 31 g ai/ha) | Plant response rating, Ryegrass, Italian ([10]; 125 g ai/ha) | other results
1 | FC(F)(F)CCOc1c(Cl)cccc1Oc1ncc(Cl)cn1 [Compound 43] | 20 | 70 | 0 | 90 | 0 | 0 | 0 | 10 | 10 | 100 | 40 | 100 | 0 | 30 | 30 | 80 | 0 | 0 | 0 | 0 | Plant response rating, Foxtail, Giant ([11]; 31 g ai/ha): 10; Plant response rating, Foxtail, Giant ([11]; 125 g ai/ha): 40; Plant response rating, Pigweed ([12]; 31 g ai/ha): 50; Plant response rating, Pigweed ([12]; 125 g ai/ha): 90; Plant response rating, Wheat ([13]; 31 g ai/ha): 0; Plant response rating, Wheat ([13]; 125 g ai/ha): 0; Plant response rating, Corn (corn (Zea mays); 31 g ai/ha): 10; Plant response rating, Corn (corn (Zea mays); 125 g ai/ha): 10; Plant response rating, Blackgrass ([14]; 31 g ai/ha): 0; Plant response rating, Blackgrass ([14]; 125 g ai/ha): 30; Plant response rating, Galium ([15]; 31 g ai/ha): 20; Plant response rating, Galium ([15]; 125 g ai/ha): 60; Plant response rating, Rice (rice (Oryza sativa)): 50; Plant response rating, Sedge, Umbrella [16]: 90; Plant response rating, Ducksalad [17]: 100; Plant response rating, Barnyardgrass [18]: 0
2 | FCCCOc1c(Cl)cccc1Oc1ncc(Cl)cn1 [Compound 44] | 10 | 20 | 0 | 40 | 0 | 0 | 0 | 0 | 10 | 80 | 10 | 100 | 0 | 10 | 20 | 70 | 0 | 0 | 0 | 0 | Plant response rating, Foxtail, Giant ([11]; 31 g ai/ha): 0; Plant response rating, Foxtail, Giant ([11]; 125 g ai/ha): 20; Plant response rating, Pigweed ([12]; 31 g ai/ha): 30; Plant response rating, Pigweed ([12]; 125 g ai/ha): 70; Plant response rating, Wheat ([13]; 31 g ai/ha): 0; Plant response rating, Wheat ([13]; 125 g ai/ha): 0; Plant response rating, Corn (corn (Zea mays); 31 g ai/ha): 0; Plant response rating, Corn (corn (Zea mays); 125 g ai/ha): 10; Plant response rating, Blackgrass ([14]; 31 g ai/ha): 0; Plant response rating, Blackgrass ([14]; 125 g ai/ha): 10; Plant response rating, Galium ([15]; 31 g ai/ha): 10; Plant response rating, Galium ([15]; 125 g ai/ha): 20; Plant response rating, Rice (rice (Oryza sativa)): 0; Plant response rating, Sedge, Umbrella [16]: 30; Plant response rating, Ducksalad [17]: 70; Plant response rating, Barnyardgrass [18]: 0
3 | N#CCCCOc1c(Cl)cccc1Oc1ncc(Cl)cn1 [Compound 45] | 0 | 10 | 0 | 30 | 0 | 0 | 0 | 0 | 0 | 30 | 20 | 70 | 0 | 10 | 20 | 50 | 10 | 10 | 0 | 0 | Plant response rating, Foxtail, Giant ([11]; 31 g ai/ha): 0; Plant response rating, Foxtail, Giant ([11]; 125 g ai/ha): 10; Plant response rating, Pigweed ([12]; 31 g ai/ha): 20; Plant response rating, Pigweed ([12]; 125 g ai/ha): 50; Plant response rating, Wheat ([13]; 31 g ai/ha): 0; Plant response rating, Wheat ([13]; 125 g ai/ha): 0; Plant response rating, Corn (corn (Zea mays); 31 g ai/ha): 0; Plant response rating, Corn (corn (Zea mays); 125 g ai/ha): 10; Plant response rating, Blackgrass ([14]; 31 g ai/ha): 0; Plant response rating, Blackgrass ([14]; 125 g ai/ha): 0; Plant response rating, Galium ([15]; 31 g ai/ha): 10; Plant response rating, Galium ([15]; 125 g ai/ha): 20; Plant response rating, Rice (rice (Oryza sativa)): 0; Plant response rating, Sedge, Umbrella [16]: 0; Plant response rating, Ducksalad [17]: 20; Plant response rating, Barnyardgrass [18]: 0
